According to paper PMC10518010, “The leaderless communication peptide (LCP) class of quorum-sensing peptides is broadly distributed among Firmicutes” (Nature Communications, 2023):
Where a SMILES comes first, the peptide text is derived from it. The star is where a group is joined. FITC = O=C1OC2(c3ccc(O)cc3Oc3cc(O)ccc32)c2ccc(NC(=S)*)cc21

Key:
[1] = test system: secreted cysteine protease SpeB; conditions: S. pyogenes; cited from earlier work
Description: (§1) Recently, we discovered a new class of leaderless communication peptide (LCP) in human pathogen Streptococcus pyogenes that controls bacterial virulence (Fig. 1a)[10]. Contrary to characterized bacterial peptide signals, the LCP, known as SpeB-inducing peptide (SIP), is synthesized from a 24 base pair ultrasmall open reading frame (usORF) encoding a mature 8 amino acid peptide without the amino acid sequences required for secretion and processing. Consistent with the lack of hallmarks of bacterial peptide signals, the canonical machineries required for the export and import of qs peptides ...

RopB = conditions: S. pyogenes; cited from earlier work
Description: as §1

[2] = test system: bacterial virulence in animal models of infection; conditions: cited from earlier work
Description: as §1

[3] = test system: specific DNA/promoter sequences; conditions: peer review response; ref "our detailed published findings"; cited from earlier work
Description: page 13: not provide the desired explanation for the differences in the binding sites of both receptors. Consequently, we provided analyses and explanation in the previous version that is supported by the data and meaningful. - Regarding this point, it has recently been published that RopB-GAS might act as a repressor and not as a transcriptional activator (DOI: 10.26508/lsa.202201809), as the authors show for RopBss. Could this fact explain the differences in their binding sites? Perhaps this point would be interesting to discuss in the manuscript. RESPONSE: We are aware of this study. Howeve ...

WT S. salivarius = conditions: 30 min, fluorescence and microscopy
Description: Cells were harvested by centrifugation, and washed three times with sterile PBS. Cells were fixed on the coverslip using 1% glutaraldehyde and 3% formaldehyde. The images were taken using a Nikon Eclipse TiN-STORM super resolution microscope equipped with iXon3 897 EM-CCD camera.

[4] = biological target: FITC-labeled synthetic LCPss (S. salivarius); assay: fluorescence polarisation; purified RopBss titrated against FITC-labeled LCPss; 20 mM potassium phosphate pH 6.0, 75 mM NaCl, 2% DMSO, 1 mM EDTA, 0.0005% Tween 20

For “MWLLLLFL [SIP, SpeB-inducing peptide of Streptococcus pyogenes, mature 8 amino acid peptide]”, the “SpeB regulation (in words)” value [1] is given as “upregulation of an adjacently located virulence factor, a secreted cysteine protease SpeB”, the “Binding to RopB (in words)” value (RopB) is given as “binds to a RRNPPA-family transcription activator, Regulator of Protease B (RopB)” and the “Bacterial virulence (in words)” value [2] is given as “increased bacterial virulence in animal models of infection”. For the same compound, the “RopB binding to promoter sequences in the presence of SIP (in words)” value [3] was “with high affinity only in the presence of SIP”.

For `CC[C@H](C)[C@H](NC(=O)[C@H](CC(C)C)NC(=O)[C@H](Cc1c[nH]c2ccccc12)NC(=O)[C@H](CCSC)NC(=S)Nc1ccc2c(c1)C(=O)OC21c2ccc(O)cc2Oc2cc(O)ccc21)C(=O)N[C@@H](CC(C)C)C(=O)N[C@@H](CC(C)C)C(=O)N[C@@H](Cc1ccccc1)C(=O)N[C@@H](CC(C)C)C(=O)O` [FITC-LCPss] ({FITC}-MWLILLFL-OH), the “Internalization of exogenously added peptide (in words)” value (WT S. salivarius) was “internalization of the exogenously added FITC-labeled synthetic LCPss”.

“RopBss (RopB homolog, cytosolic LCP receptor of Streptococcus salivarius)” gave a Kd [4] of 8 nM.
